Experimental data reported in PMC10947113, “A Bivalent Activatable Fluorescent Probe for Screening and Intravital Imaging of Chemotherapy‐Induced Cancer Cell Death” (Angewandte Chemie (Weinheim an Der Bergstrasse, Germany), 2021).
Like-named read-outs stand apart in the source and are kept apart here.

Assays:
[1] = system: MDA-MB231 cells; test: Apotracker Red flow cytometry drug screen, MDA-MB231; type: cell-based, human; conditions: 1 to 100 μM, 48 h, Apotracker Red 150 nM, 3 independent experiments
Experimental: (§1) To corroborate the versatility of Apotracker Red, we built a screening platform including a total of 8 cancer cell lines of variable origin and pathogenesis: breast (MCF7, MDA‐MB231 and MMTV‐PyMT (mouse mammary tumour virus‐polyoma middle tumour‐antigen)[23]), lung (A549), prostate (PC3 and LnCap), blood cells (Jurkat) and colon (HT29). All cell lines were cultured under standard conditions and seeded with the fluorescent proliferation marker CellTrace^TM Violet (CV) in 96‐well plates (10–20×10^3 cells/well) for high‐throughput flow cytometry. […] Using this platform, we tested a collection of FDA‐approved drugs in all cancer cell lines and compared their ability to induce apoptosis using Apotracker Red as the reporter. Specifically, we included DNA alkylation agents (e.g., cyclophosphamide, cisplatin, 5‐fluorouracil, gemcitabine, temozolomide), proteasomal and mitotic inhibitors (e.g., bortezomib, docetaxel, paclitaxel) and antagonists of specific proteins (e.g., dexamethasone, tamoxifen; Figure 3 b).
Edinburgh. Human peripheral blood neutrophils were isolated as previously described.[3] Briefly, whole blood was drawn into tubes containing anti -coagulant 3.6% sodium citrate (final concentration: 0.4% (w/v)) and centrifuged at 350 g for 20 min at r.t. with lowest acceleration and no brake. Platelet-rich plasma was rem oved, and leukocytes separated from erythrocytes by 0.6% dextran sedimentation in saline for 30 min at r.t. The upper layer was further fractionated using an isotonic discontinuous Percoll density gradient. Neutrophils were harvested from the 63% and 72.9% interface and cultured in Iscove’s Modified Dulbecco’s Medium (IMDM, Gibco) in 5% h um an A B se rum fo r 1 8 h at 37°C, 5% CO2 to in du ce spontaneous […]
Cell culture. MCF-7, A549, LnCap, MDA-MB-231, Jurkat T cells and PC3 cells were obtained from American Type Culture Collection (ATCC). HT29 cells were purchased from Merck (S i g m a Aldrich, UK). Mouse Mammary Tumour Virus –Polyoma Middle T antigen (MMTV -PyMT) cells were provided by the lab of Mikala Egeblad (CSHL, US). […]

[2] = system: 8 cancer cell lines; test: Classification of drugs by Apotracker Red (apoptosis) and CellTrace Violet (proliferation) staining; type: cell-based; conditions: for effect on cell proliferation (CellTrace Violet): Figure S8
Experimental: as §1, with “cytometry. After drug treatment (i.e., drug addition plus 24 h incubation), Apotracker Red was incubated for 10 min and fluorescence readings were directly acquired without any additional processing steps (Figure 3 a).” for “cytometry.”
(§2) First, all drugs were tested in the 8 different cell lines to determine the percentages of Apotracker Red‐stained apoptotic cells compared to no treatment (Figure 3 c; Figure S8). […] All 5 drugs were tested at multiple concentrations (from 1 to 100 μM) and with incubation times up to 48 h to examine whether drugs could block cell proliferation at late stages (Figures S9–S13).
Figure S8. Heatmap of relative inhibition of cell proliferation (as indicated by staining of CellTraceTM Violet) after treatment of cancer cell lines with different drugs. Data presented as an average of 3 independent experiments. Cells were stained on day 0 with CellTraceTM Violet (1 µM) and mean fluorescence intensities were determined on the 5L LSR after 24 h of treatment with the different drugs. […]
Cell culture. MCF-7, A549, LnCap, MDA-MB-231, Jurkat T cells and PC3 cells were obtained from American Type Culture Collection (ATCC). HT29 cells were purchased from Merck (S i g m a Aldrich, UK). Mouse Mammary Tumour Virus –Polyoma Middle T antigen (MMTV -PyMT) cells were provided by the lab of Mikala Egeblad (CSHL, US). MMTV-PyMT, MCF-7, LnCap, MDA-MB-231 and Jurkat T cells were cultured in Roswell Park Memorial Institute (RPMI) 1640 Medium supplemented with 10% fetal bovine serum (FBS) , 100 U mL-1 penicillin and 0.1 mg mL-1 streptomycin. A549 and PC3 cells were cultured in Dublecco’s modified Eagle’s medium (DMEM) supplemented with 10% fetal bovine serum (FBS), 100 U mL-1 penicillin and 0.1 mg […]
Flow cytometry drug screen.

[3] = system: breast cancer cells (MMTV-PyMT, MDA-MB231, MCF7); test: Dose-dependency study in breast cancer cell lines; type: cell-based, mouse and human; conditions: 1 to 100 μM, 48 h, Apotracker Red 150 nM, 3 independent experiments
Experimental: as §2, with “S8). […] From this screen, we decided to select 5 drugs with potent pro‐apoptotic response in breast cancer, the most diagnosed cancer worldwide.[25] […] From group 2, we selected cyclophosphamide, tamoxifen, and 5‐fluorouracil as pro‐apoptotic molecules.” for “S8).”
Figure 4 Apotracker Red detects dose‐dependent chemotherapeutic‐induced apoptosis in mouse and human breast cancer cell lines. Cells were plated with 1 μM CV, treated with increasing concentrations (0, 1, 3, 10, 30 and 100 μM) of selected drugs for 48 h, and stained with Apotracker Red (150 nM) before data acquisition. Drugs: tamoxifen (beige), cisplatin (black), 5‐fluorouracil (green), gemcitabine (pink) and cyclophosphamide (red). Data presented as mean±SEM of 3 independent experiments.
Edinburgh. Human peripheral blood neutrophils were isolated as previously described.[3] Briefly, whole blood was drawn into tubes containing anti -coagulant 3.6% sodium citrate (final concentration: 0.4% (w/v)) and centrifuged at 350 g for 20 min at r.t. with lowest acceleration and no brake. Platelet-rich plasma was rem oved, and leukocytes separated from erythrocytes by 0.6% dextran sedimentation in saline for 30 min at r.t. […]
were centrifuged (300 g, 5 min, r.t.), washed once with PBS before addition of 0.05% Trypsin, 0.02% ethylenediaminetetraacetic acid (EDTA) in Hank’s balanced salt solution (HBSS) and incubation at 37°C for 5 min. […] Histograms and mean fluorescence intensities of apoptotic cells were measured on a 5L LSR flow cytometer under the following excitation/emission filters: Apotracker Red (561/610 nm), Annexin V-AF647 (647 /670 nm).
Data were acquired using the FACS Diva software and analysed using the FlowJo X software. […]

[4] = system: apoptotic cells (primary human neutrophils, Jurkat T cells); test: Divalent cation-independent staining, flow cytometry with EDTA; type: cell-based; conditions: 2.5 mM EDTA, Apotracker Red 150 nM, Annexin V-AF647 25 nM
[5] = 8 cancer cell lines, 24 h treatment, flow cytometry

| Molecule | Apotracker Red staining in MDA-MB-231 cells, dose-dependency study [1] | drug group by Apotracker Red (apoptosis) and CV (proliferation) staining [2, 5] | further results |
| --- | --- | --- | --- |
| O=c1[nH]cc(F)c(=O)[nH]1 [5-fluorouracil] | weaker Apotracker Red‐staining | induced apoptosis with little reduction of cell proliferation | – |
| CC(C)C[C@H](NC(=O)[C@H](Cc1ccccc1)NC(=O)c1cnccn1)B(O)O [bortezomib] | – | induced apoptosis with little reduction of cell proliferation | effect on cell proliferation (CellTrace Violet) ([2]; 24 h treatment): very minor effects on cell proliferation |
| O=P1(N(CCCl)CCCl)NCCCO1 (stereo not shown) [cyclophosphamide] | weaker Apotracker Red‐staining | – | drug group by Apotracker Red (apoptosis) and CV (proliferation) staining [2]: induced apoptosis with little reduction of cell proliferation |
| C[C@@H]1C[C@H]2[C@@H]3CCC4=CC(=O)C=C[C@]4(C)[C@@]3(F)[C@@H](O)C[C@]2(C)[C@@]1(O)C(=O)CO [dexamethasone] | – | had no impact on proliferation or apoptosis | – |
| CC(=O)O[C@@]12CO[C@@H]1C[C@H](O)[C@@]1(C)C(=O)[C@H](O)C3=C(C)[C@@H](OC(=O)[C@H](O)[C@@H](NC(=O)OC(C)(C)C)c4ccccc4)C[C@@](O)([C@@H](OC(=O)c4ccccc4)[C@H]21)C3(C)C [docetaxel] | – | inhibited cell proliferation but showed little or no induction of apoptosis | – |
| Nc1ccn([C@@H]2O[C@H](CO)[C@@H](O)C2(F)F)c(=O)n1 [gemcitabine] | weaker Apotracker Red‐staining | induced apoptosis and decreased cell proliferation | – |
| CC(=O)O[C@H]1C(=O)[C@@]2(C)[C@H]([C@H](OC(=O)c3ccccc3)[C@]3(O)C[C@H](OC(=O)[C@H](O)[C@@H](NC(=O)c4ccccc4)c4ccccc4)C(C)=C1C3(C)C)[C@]1(OC(C)=O)CO[C@@H]1C[C@@H]2O [paclitaxel] | – | induced apoptosis with little reduction of cell proliferation | effect on cell proliferation (CellTrace Violet) ([2]; 24 h treatment): very minor effects on cell proliferation |
| CC/C(=C(\c1ccccc1)c1ccc(OCCN(C)C)cc1)c1ccccc1 [tamoxifen] | – | induced apoptosis with little reduction of cell proliferation | percentages of Apotracker Red staining across all breast cancer cells, dose-dependency study [3]: highest percentages of Apotracker Red staining |
| Cn1nnc2c(C(N)=O)ncn2c1=O [temozolomide] | – | inhibited cell proliferation but showed little or no induction of apoptosis | – |
| Annexin V‐AF647: a 36 kDa protein marker of PtdSer in the presence of Ca2+ ions (protein, UniProt P08758 2-320, looked up, Alexa Fluor 647 label, a 36 kDa protein marker of PtdSer in the presence of Ca2+ ions) Annexin A5: AQVLRGTVTDFPGFDERADAETLRKAMKGLGTDEESILTLLTSRSNAQRQEISAAFKTLFGRDLLDDLKSELTGKFEKLIVALMKPSRLYDAYELKHALKGAGTNEKVLTEIIASRTPEELRAIKQVYEEEYGSSLEDDVVGDTSGYYQRMLVVLLQANRDPDAGIDEAQVEQDAQALFQAGELKWGTDEEKFITIFGTRSVSHLRKVFDKYMTISGFQIEETIDRETSGNLEQLLLAVVKSIRSIPAYLAETLYYAMKGAGTDDHTLIRVMVSRSEIDLFNIRKEFRKNFATSLYSMIKGDTSGDYKKALLLLCGEDD | – | – | staining of apoptotic cells after chelation of divalent cations [4]: failed to bind |
